Consider six compounds from ChEMBL document CHEMBL1201862, “PubChem BioAssay data set” (2004).

Active and inactive are the calls of the source.

Test [1] concerns the target Tyrosine-protein phosphatase non-receptor type 7 (Homo sapiens, UniProt P35236). Briefly: redox-active compounds inhibiting HePTP phosphatase – biochemical, fluorescence, mechanism study (AID 2068). The test is classed as functional.
For test [2], the target named is Dual specificity protein phosphatase 6 (Rattus norvegicus, UniProt Q64346). The test is classed as functional.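 Further: confirmatory in vitro dose-response testing of MKP-3 inhibition; recombinant His-tagged MKP-3 made in E. coli BL21 with OMFP substrate.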
Test [3] deals with BJ. As to the kind of experiment: BJ-TERT fibroblast viability loss – cell-based, RAS-independent, luminescence, dose response (AID 1933). The test is classed as functional. The note with it: Homo sapiens.
Test [4] has as its system BJ. Briefly: cells. The test is classed as functional, cell-based. The note with it: Homo sapiens.
For test [5], the system named is BJ. As to the kind of experiment: BJ-TERT-LT-ST fibroblast viability loss – cell-based, RAS-independent, luminescence, dose response (AID 1935).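 Further: BJ fibroblasts immortalized with TERT plus LT and ST oncogenes.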 The test is classed as functional. The note with it: Homo sapiens.
The nature of test [6]: DRD fibroblast viability loss – cell-based, non-viral oncogenic, luminescence, dose response (AID 1934). In kind it is functional. Conditions: Homo sapiens.
Another test has as its system Jurkat. Briefly: blockers of NF-kB activation in T cells – Jurkat, luciferase reporter, luminescence, B- and T-cell, dose response (AID 489004).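 Further: NF-kB luciferase reporter Jurkat cells stimulated with PMA plus ionomycin.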 In kind it is functional, cell-based. Conditions: Homo sapiens.
A short description of test [7]: HEK-293T viability loss, compound-treated – cell-based, uHTS hits, cytotoxicity control for B/T-cell NF-kB inhibitor project, dose response (AID 489019).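 Further: IC50 reflects cytotoxicity as loss of cell viability.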 In kind it is functional.
The next test relates to INS1. Briefly: INS-1E survival protection against cytokine death – cell-based, luminescence, retest, dose response (AID 449756).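 Further: cell death triggered by IL-1 beta plus TNF-alpha plus IFN-gamma mixture; protective hits raise ATP signal compared with cytokine alone wells.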 The test is classed as functional. Conditions: Rattus norvegicus.
Test [8] in a line: blockers of HIV-1 envelope-mediated cell-cell fusion – cherry-pick, dose response (AID 652057). In kind it is functional, cell-based.
The target in the next test is Galanin receptor type 3 (Homo sapiens, UniProt O60755). Briefly: Fluorescence-based cell-based primary high throughput dose response assay to identify antagonists of the Galanin Receptor 3 (GalR3). The test is classed as functional.
A short description of a further test: cells. In kind it is functional, cell-based. The note with it: HEK-CNG.
Test [9] is described as follows: viability loss in CEM21 cells – cell-based, CellTiter-Glo luminescence, cherry-picked, cytotoxicity control for viral fusion inhibitor project, dose response (AID 652042).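 Further: potency for signal decrease meaning cytotoxicity.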 In kind it is functional.
Test [10] can be described thus: blockers of HIV-1 ZM109 envelope-driven cell-cell fusion – HeLa effector, CEM target cells, luciferase, cherry-pick, dose response (AID 652058).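 Further: luciferase signal from HIV-1 Env mediated cell-cell fusion of effector and target cells.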 In kind it is functional, cell-based.
Test [11] can be described thus: off-target signal loss in HeLa-CEM21 co-culture – HeLa F-luc CTL cells, cherry-picked, counter-screen for HIV-1 Env fusion inhibitor project, dose response (AID 652040).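 Further: potency for signal decrease marking cytotoxic or nonspecific inhibition.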 In kind it is functional, cell-based. On the technique in general: The purpose of a counterscreen is to sort out artefacts and off-target activity.
Test [12] can be described thus: HIV-1 AD8 envelope cell-cell fusion blockers – cherry-pick, dose response (AID 652062).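 Further: luciferase signal from cell-cell fusion driven by HIV-1 clade B AD8 Env; potency is for inhibitors of fusion seen as a drop in luminescence.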 In kind it is functional, cell-based.
A short description of test [13]: SFLLRN-induced P-Selectin Platelet Surface Expression Measured in Cell-Based System Using Flow Cytometry - 2016-03_Inhibitor_Dose_DryPowder_Activity_Set3. [Related pubchem assays (depositor defined):AID1678]. The test is classed as functional. On the technique in general: In flow cytometry, cells or beads pass a laser one at a time.
The nature of test [14]: Luminescence Cell-Based Dose Response Follow up to Identify Inhibitors of Platelet Dense Granule Release. [Related pubchem assays (depositor defined):AID1663, AID1678, AID1889, AID2519]. In kind it is functional.
Test [15] deals with T1, RNA-binding protein pos-1 (Caenorhabditis elegans, UniProt G5EF15).
T1 sequence (G5EF15 whole entry): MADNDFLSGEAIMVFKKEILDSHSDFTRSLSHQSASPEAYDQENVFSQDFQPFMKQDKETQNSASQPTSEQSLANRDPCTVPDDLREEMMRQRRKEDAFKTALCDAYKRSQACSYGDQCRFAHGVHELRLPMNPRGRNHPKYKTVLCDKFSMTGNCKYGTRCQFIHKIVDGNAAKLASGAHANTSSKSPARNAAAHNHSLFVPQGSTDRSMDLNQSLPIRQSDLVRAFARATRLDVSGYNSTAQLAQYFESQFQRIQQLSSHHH
Briefly: disruptors of C. elegans POS-1 RNA interaction – biochemical, fluorescence polarization, dose response (AID 1964). (In general: Polarisation of emitted light reports the rotation of a fluorescent probe.)

For test [16], the target named is T2, Zinc finger protein mex-5 (Caenorhabditis elegans, UniProt Q9XUB2).
T2 sequence (Q9XUB2 whole entry): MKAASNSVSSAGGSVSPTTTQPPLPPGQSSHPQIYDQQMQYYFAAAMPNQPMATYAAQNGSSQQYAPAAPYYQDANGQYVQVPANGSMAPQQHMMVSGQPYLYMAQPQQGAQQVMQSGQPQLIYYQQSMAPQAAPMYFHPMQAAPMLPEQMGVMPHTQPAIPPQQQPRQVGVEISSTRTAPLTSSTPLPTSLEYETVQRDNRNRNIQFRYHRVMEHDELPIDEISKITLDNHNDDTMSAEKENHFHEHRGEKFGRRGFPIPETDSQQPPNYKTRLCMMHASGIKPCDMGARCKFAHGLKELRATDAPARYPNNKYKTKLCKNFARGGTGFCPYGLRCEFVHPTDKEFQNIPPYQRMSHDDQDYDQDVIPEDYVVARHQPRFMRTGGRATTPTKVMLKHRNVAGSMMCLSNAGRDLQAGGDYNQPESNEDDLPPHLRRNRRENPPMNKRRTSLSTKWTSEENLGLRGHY
Briefly: potency of MEX-5 RNA-binding blockers – biochemical, C. elegans, fluorescence polarization, dose response (AID 1960).

The target of test [17] is E3 ubiquitin-protein ligase XIAP (Homo sapiens, UniProt P98170). Briefly: Counter Screen using XIAP-Bir3 for Chemical Antagonists of Bir1/2 domains of IAP-family anti-apoptotic proteins. [Related pubchem assays (depositor defined):AID1018, AID1449, AID1514, AID1638, AID1749, AID1750, AID488957, AID488963].
For a further test, the target named is ORF 73 (Human herpesvirus 8, UniProt O40947). Briefly: KSHV LANA DNA-binding disruption – biochemical, fluorescence polarization, cherry-picked samples, dose response (AID 504725).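 Further: fluorescence polarization of a labeled DNA duplex reporting LANA DNA binding; potency is for inhibitors that block LANA binding to the DNA.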 Set-up: species or system Human gammaherpesvirus 8.
For test [18], the target named is UDP-galactopyranose mutase (Mycobacterium tuberculosis, UniProt P9WIQ1). As to the kind of experiment: Inhibitors of Mycobacterium tuberculosis UDP-galactopyranose mutase (UGM) enzyme Measured in Biochemical System Using Plate Reader - 2105-02_Inhibitor_Dose_CherryPick_Activity. [Related pubchem assays (depositor defined):AID504439].
In another test the target is Keap1/Nrf2 (Homo sapiens, UniProt Q14145). Briefly: disruptors of Keap1 binding to Nrf2 peptide – biochemical, fluorescence polarization, cherry-picked samples, dose response (AID 588683).
For a further test, the target named is Protein S100-A4 (Homo sapiens, UniProt P26447). As to the kind of experiment: human S100A4 peptide interaction inhibition curves – biochemical, fluorescence polarization, cherry-picked hits, dose response (AID 687001). The test is classed as functional.
In test [19] the target is T3, Fibrinogen beta chain (Homo sapiens, UniProt P02675).
T3 sequence (P02675 whole entry): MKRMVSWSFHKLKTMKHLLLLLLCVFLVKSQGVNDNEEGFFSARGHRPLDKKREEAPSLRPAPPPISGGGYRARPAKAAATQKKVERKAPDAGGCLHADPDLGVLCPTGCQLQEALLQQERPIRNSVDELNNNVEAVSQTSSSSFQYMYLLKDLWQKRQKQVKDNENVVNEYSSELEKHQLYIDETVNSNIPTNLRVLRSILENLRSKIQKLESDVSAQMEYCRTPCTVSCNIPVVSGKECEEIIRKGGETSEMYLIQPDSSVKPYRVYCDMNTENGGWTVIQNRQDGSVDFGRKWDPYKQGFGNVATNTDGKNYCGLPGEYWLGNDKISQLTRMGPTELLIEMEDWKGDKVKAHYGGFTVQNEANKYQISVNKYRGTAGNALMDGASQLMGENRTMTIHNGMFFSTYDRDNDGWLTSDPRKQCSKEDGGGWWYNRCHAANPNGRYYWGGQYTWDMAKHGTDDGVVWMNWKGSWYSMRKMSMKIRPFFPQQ
As to the kind of experiment: Fluorescence polarization-based biochemical high throughput dose response assay to identify inhibitors that disrupt the binding of a cyclic peptide (Tn6) to the fibrin proteolytic product D-Dimer and fragment E complex [DD(E )].

Test [20] deals with T3, Fibrinogen beta chain. As to the kind of experiment: Fluorescence polarization-based biochemical high throughput dose response assay to identify inhibitors that disrupt the binding of a cyclic peptide (Tn7) to the fibrin proteolytic product D-Dimer and fragment E complex [DD(E )].
The subject of a further test is Candida albicans. As to the kind of experiment: Candida growth inhibition combined with fluconazole – CaCi-2 strain, Alamar Blue, dry powder, set 3, dose response (AID 488907). In kind it is functional, organism-based.
Test [21] is described as follows: viability of PTEN-deleted HCT116 cells – cell-based, HCT116 PTEN knockout, dose response (AID 1047).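 Further: HCT116 colon tumor cells with PTEN knocked out; cells exposed to compound for 60 hours before readout; potency for loss of cell viability measured by luminescence.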 In kind it is functional.
Test [22] in a line: viability of HCT116 lacking mutant beta-catenin – cell-based, human colon tumor, dose response (AID 1045).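 Further: HCT116 colon tumor cells with beta catenin knocked out; cells exposed to compound for 60 hours.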 The test is classed as functional.
Test [23] concerns the target T4, Microphthalmia-associated transcription factor (Homo sapiens, UniProt O75030).
T4 sequence (O75030 whole entry): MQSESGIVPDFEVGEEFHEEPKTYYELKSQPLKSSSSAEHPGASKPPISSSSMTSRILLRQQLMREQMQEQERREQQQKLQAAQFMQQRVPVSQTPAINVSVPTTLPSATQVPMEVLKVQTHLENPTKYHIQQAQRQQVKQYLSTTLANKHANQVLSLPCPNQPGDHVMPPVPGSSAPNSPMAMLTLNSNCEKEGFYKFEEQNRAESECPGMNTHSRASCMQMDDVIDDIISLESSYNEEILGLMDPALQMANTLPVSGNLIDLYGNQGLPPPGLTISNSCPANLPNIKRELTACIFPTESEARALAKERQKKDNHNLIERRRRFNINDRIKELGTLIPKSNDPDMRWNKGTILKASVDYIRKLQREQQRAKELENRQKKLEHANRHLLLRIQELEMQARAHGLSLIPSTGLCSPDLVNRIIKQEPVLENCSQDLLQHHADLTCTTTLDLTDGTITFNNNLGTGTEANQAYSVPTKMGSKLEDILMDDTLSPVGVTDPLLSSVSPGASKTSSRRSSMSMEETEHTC
Briefly: reducers of TRPM1 reporter luminescence, concentration series – cell-based, SK-MEL-5, cherry-picked, set 3, MITF inhibitor project, dose response (AID 493073).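 Further: SK-MEL-5 melanoma cells with luciferase driven by the MITF target TRPM1 promoter.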 The test is classed as functional.

The next test concerns A-375. Briefly: MITF: Counter assay: A375 proliferation Measured in Cell-Based System Using Plate Reader - 2084-03_Inhibitor_Dose_DryPowder_Activity. [Related pubchem assays (depositor defined):AID488944]. Conditions: Homo sapiens. The test is classed as functional.

Chain of UDP-galactopyranose mutase (P9WIQ1 whole entry): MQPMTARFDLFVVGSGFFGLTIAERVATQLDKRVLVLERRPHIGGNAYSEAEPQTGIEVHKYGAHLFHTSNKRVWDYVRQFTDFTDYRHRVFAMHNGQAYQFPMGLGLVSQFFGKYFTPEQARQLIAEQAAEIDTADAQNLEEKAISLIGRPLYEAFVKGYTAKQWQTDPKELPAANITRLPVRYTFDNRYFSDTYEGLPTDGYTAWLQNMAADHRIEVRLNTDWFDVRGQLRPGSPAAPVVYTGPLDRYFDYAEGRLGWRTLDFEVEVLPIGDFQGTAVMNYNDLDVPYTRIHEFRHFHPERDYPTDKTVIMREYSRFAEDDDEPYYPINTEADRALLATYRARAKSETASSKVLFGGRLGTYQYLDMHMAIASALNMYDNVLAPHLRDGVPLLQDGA
Chain of Keap1/Nrf2 (Q16236 whole entry): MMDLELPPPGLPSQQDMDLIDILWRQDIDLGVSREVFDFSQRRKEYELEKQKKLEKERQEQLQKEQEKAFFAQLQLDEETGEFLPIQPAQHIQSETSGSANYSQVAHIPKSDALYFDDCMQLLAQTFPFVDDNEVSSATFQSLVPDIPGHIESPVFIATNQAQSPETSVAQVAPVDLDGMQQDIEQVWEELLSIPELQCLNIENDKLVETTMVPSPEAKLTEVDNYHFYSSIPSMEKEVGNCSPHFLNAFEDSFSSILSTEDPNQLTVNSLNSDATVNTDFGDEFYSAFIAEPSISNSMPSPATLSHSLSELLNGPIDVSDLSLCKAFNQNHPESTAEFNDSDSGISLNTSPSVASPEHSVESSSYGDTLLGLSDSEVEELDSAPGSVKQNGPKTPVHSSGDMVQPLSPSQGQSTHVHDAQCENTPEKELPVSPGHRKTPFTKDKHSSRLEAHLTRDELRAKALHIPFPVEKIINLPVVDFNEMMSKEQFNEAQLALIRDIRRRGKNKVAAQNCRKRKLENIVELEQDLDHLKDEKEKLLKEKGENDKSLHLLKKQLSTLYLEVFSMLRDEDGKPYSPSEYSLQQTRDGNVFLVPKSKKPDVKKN
Chain of Keap1/Nrf2 (Q14145 whole entry): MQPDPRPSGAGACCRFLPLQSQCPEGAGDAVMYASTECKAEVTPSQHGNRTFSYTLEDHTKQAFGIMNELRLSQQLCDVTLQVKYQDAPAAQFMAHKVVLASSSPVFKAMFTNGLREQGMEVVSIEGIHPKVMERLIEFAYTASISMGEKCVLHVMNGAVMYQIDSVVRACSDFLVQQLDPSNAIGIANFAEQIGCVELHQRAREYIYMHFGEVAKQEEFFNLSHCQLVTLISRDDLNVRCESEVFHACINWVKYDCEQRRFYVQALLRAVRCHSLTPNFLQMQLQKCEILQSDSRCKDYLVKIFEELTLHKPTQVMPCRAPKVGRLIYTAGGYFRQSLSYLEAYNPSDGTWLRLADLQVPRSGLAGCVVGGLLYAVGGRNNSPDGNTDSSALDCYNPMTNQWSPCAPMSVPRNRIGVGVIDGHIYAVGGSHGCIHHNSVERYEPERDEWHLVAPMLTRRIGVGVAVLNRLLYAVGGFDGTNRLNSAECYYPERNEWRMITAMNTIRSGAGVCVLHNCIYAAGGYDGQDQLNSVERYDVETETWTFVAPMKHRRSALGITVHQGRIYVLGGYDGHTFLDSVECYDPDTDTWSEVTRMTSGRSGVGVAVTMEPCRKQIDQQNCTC
Chain of E3 ubiquitin-protein ligase XIAP (P98170 whole entry): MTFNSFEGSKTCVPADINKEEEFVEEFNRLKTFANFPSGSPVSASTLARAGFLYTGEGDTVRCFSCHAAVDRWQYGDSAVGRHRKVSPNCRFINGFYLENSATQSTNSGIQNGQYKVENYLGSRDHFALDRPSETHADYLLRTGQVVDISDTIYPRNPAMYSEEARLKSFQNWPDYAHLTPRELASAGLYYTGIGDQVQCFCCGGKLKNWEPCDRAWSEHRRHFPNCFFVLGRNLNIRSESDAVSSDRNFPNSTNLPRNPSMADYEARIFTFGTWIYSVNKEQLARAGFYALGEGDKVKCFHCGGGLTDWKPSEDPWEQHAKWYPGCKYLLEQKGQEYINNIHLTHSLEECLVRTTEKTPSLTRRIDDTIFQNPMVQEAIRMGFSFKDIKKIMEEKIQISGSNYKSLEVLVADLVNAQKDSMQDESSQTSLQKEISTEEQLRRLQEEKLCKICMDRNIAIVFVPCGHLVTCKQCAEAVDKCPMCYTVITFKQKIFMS
Chain of Galanin receptor type 3 (O60755 whole entry): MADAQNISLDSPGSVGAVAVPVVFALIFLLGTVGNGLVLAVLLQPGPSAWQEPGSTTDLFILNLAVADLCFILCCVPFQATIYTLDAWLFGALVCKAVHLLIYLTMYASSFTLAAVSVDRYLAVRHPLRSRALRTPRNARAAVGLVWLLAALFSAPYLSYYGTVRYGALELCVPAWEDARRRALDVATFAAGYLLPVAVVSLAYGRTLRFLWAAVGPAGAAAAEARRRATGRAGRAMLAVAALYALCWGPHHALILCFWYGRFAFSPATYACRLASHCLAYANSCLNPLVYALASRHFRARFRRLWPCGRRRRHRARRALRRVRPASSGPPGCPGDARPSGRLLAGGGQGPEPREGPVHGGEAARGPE
Chain of Dual specificity protein phosphatase 6 (Q64346 whole entry): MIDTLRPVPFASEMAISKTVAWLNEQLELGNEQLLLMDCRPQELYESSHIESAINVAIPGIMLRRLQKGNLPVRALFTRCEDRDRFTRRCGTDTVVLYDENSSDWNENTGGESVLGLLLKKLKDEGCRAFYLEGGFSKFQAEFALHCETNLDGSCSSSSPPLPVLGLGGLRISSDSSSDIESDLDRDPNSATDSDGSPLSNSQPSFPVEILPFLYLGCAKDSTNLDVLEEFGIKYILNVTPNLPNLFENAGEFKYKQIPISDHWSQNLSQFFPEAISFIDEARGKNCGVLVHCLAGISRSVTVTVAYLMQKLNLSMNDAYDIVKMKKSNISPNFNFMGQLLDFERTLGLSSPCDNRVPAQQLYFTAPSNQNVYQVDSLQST
Chain of ORF 73 (O40947 whole entry): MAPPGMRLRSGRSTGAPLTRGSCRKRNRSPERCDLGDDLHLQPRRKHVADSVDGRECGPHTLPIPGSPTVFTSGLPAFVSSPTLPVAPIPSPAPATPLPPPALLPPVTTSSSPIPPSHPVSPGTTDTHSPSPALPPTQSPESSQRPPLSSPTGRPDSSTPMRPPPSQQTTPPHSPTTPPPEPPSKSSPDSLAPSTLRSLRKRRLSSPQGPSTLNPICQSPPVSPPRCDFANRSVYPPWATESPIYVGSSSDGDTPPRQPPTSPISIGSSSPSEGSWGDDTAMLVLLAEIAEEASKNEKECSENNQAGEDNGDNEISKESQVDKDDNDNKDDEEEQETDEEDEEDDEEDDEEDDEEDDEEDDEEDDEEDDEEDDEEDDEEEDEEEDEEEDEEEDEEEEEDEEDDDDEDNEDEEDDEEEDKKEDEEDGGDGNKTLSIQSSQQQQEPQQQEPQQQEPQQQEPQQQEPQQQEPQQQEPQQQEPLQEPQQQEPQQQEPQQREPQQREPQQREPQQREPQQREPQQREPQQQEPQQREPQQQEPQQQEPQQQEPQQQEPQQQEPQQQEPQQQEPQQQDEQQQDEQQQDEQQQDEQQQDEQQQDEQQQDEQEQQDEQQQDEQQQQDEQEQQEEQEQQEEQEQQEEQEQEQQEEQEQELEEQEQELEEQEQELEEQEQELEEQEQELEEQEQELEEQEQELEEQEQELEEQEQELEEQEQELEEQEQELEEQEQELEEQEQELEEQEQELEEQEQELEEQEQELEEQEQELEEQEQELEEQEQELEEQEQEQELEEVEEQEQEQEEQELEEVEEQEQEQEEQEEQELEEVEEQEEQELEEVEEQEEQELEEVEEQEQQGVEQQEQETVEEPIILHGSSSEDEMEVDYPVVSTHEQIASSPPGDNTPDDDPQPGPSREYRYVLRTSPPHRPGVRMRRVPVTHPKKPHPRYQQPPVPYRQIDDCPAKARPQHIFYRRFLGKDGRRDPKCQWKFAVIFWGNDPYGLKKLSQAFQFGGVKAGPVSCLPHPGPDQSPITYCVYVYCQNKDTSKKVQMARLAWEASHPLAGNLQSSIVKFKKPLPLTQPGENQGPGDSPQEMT
Chain of Tyrosine-protein phosphatase non-receptor type 7 (P35236 whole entry): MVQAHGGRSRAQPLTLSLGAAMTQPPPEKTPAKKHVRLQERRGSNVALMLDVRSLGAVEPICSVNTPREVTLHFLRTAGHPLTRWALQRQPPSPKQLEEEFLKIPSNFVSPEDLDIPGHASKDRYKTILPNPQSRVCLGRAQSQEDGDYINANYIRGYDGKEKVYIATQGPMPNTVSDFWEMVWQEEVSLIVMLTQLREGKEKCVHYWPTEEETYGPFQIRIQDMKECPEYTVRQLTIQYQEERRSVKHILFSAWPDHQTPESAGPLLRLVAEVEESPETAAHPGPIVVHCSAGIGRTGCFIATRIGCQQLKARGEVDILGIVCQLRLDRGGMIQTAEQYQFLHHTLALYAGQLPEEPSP
Chain of Protein S100-A4 (P26447 whole entry): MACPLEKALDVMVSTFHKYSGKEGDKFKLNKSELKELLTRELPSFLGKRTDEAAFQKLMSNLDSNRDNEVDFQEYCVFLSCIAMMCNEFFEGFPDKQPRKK

For `COc1cc(C(=S)NCc2ccc(F)c(C)c2)ccc1O`, the half-maximal inhibitory concentration (IC50) in [1] was 4.33 µM (active); in test [2] it was > 100 µM (inactive).

Regarding `CCCCCCCCCn1ccc(=N)cc1`, the EC50 was 9.76 µM (inconclusive) with BJ [3]; 11.9 µM (active) in the test with BJ [4]; > 150 µM (inconclusive) with BJ [5]; 9.21 µM (active) in test [6]; > 29.9 µM (inactive) in “cells”. Further, the IC50 with Jurkat was 6.34 µM (active); in test [7], > 80 µM (inactive); on Galanin receptor type 3 it was 1.95 µM (active). The AC50 with INS1 is 0.48 µM (active); in [8], 8.77 µM (active); in test [9], 24.1 µM (active); in test [10] it was 2 µM (active); in [11] it was 2.39 µM (active); in [12], 0.848 µM (active).

Take `CC(=O)Nc1ccc(NC(=O)c2ccccc2Br)cc1`: in test [13], the AC50 was 6.02 µM (active). Further, the EC50 in test [14] is 8.7 µM (active).

Consider `CN1C(=O)NC(c2ccccc2[N+](=O)[O-])C2=C1CCCC2=O` (configuration not stated), for which the results for the EC50 in test [15] and in test [16] were 8.8 µM (active) and 7.58 µM (inconclusive), respectively. Further, the IC50 in [17] was > 20 µM (inactive); at Fibrinogen beta chain [19], 11.3 µM (inactive); at Fibrinogen beta chain [20], > 83.3 µM (inactive). The AC50 at ORF 73 was 24.9 µM (active); in test [18] it was 54.3 µM (active); at Keap1/Nrf2, 44.5 µM (active); on Protein S100-A4, 1.41 µM (active).

With `COc1cccnc1N1CCN(C(=O)c2ccc(Cl)cc2)CC1`, in the test on Candida albicans, the AC50 is 12.3 µM (active).

Regarding `Cc1ccc(Cn2c(=N)n(CC(=O)c3ccc([N+](=O)[O-])cc3)c3ccccc32)cc1`, the EC50 was 5.32 µM (active) in [21] and 4.07 µM (active) in test [22]. Also, the results for the AC50 (in [23]; with A-375) were 6.42 µM (active) and 33.5 µM (active), respectively.

The IC50 is the concentration at which inhibition is half-maximal. Broadly, the EC50 is the concentration needed to bring the measured effect to its halfway point. In general, AC50 refers to the midpoint of the concentration-response curve, whichever way the signal moves.
